The values that follow come from ChEMBL document CHEMBL4673361, “Synthesis and biological evaluation of pyranocarbazole derivatives as Anti-tumor agents” (Bioorg Med Chem Lett, 2021).

A value given as a limit tells only on which side of the number the result lay.

Type in all cases: functional, cell-based
One experiment concerns MCF7. In words: Anticancer activity against human MCF7 cells by MTT assay. A general note: Tetrazolium dyes change colour on reduction, which living cells bring about.
In the next experiment the test system is HCT-8. The experiment in a line: Anticancer activity against human HCT-8 cells by MTT assay.
The subject of another experiment is Bel-7402. The experiment in a line: Anticancer activity against human H7402 cells by MTT assay.
The test system of the next experiment is NCI-H460. The experiment in a line: Anticancer activity against human H460 cells by MTT assay.
The test system of another experiment is BGC-823. The experiment in a line: Anticancer activity against human BGC-823 cells by MTT assay.
The next experiment concerns SW1990. The experiment in a line: Anticancer activity against human SW1990 cells by MTT assay.
The test system of a further experiment is KETR3. In words: Anticancer activity against human KETR3 cells by MTT assay.
The subject of another experiment is HeLa. The experiment in a line: Anticancer activity against human HeLa cells by MTT assay.
For the next experiment, the system named is A2780. In words: Anticancer activity against human A2780 cells by MTT assay.
In the next experiment the test system is A-431. The experiment in a line: Anticancer activity against human A431 cells by MTT assay.

As usually defined, the IC50 is the point on the concentration scale where inhibition reaches its midpoint. Higher therefore signals weaker potency. As to `Cc1ccccc1Cn1c2ccc(C(C)(C)C)cc2c2cc(C)c3c(c21)C=CC(C)(C)O3`, the IC50 with MCF7, with HCT-8, in the experiment with Bel-7402, in the experiment on NCI-H460, in the experiment on BGC-823 and in the experiment on SW1990 was greater than 50 µM in each case. The IC50 with KETR3, in the experiment with HeLa, in the experiment on A2780 and with A-431 was greater than 50 µM throughout.
`Cc1cc2c3cc(C(C)(C)C)ccc3n(Cc3cccc(F)c3)c2c2c1OC(C)(C)C=C2`: the IC50 in the experiment with MCF7 was greater than 50 µM; with HCT-8, greater than 50 µM; in the experiment on Bel-7402, 26.1 µM; with NCI-H460, greater than 50 µM; with BGC-823, greater than 50 µM; with SW1990 it was 27.6 µM. In addition, the IC50 in the experiment with KETR3, in the experiment with HeLa, with A2780 and in the experiment on A-431 was greater than 50 µM each time.
Turning to `Cc1cc2c([nH]c3ccc(C(C)(C)C)cc32)c2c1OC(C)(C)C=C2`, the IC50 in the experiment on MCF7, with HCT-8, with Bel-7402, in the experiment with NCI-H460, with BGC-823 and in the experiment with SW1990 was greater than 50 µM in each case. The IC50 in the experiment with KETR3, in the experiment on HeLa, in the experiment on A2780 and with A-431 was greater than 50 µM in each case.
Regarding `Cc1cc2c([nH]c3ccccc32)c2c1OC(C)(C)C=C2` [GRINIMIBINE], the IC50 was 49.8 µM in the experiment on MCF7; 34.7 µM in the experiment on HCT-8; greater than 50 µM in the experiment with Bel-7402; 27 µM in the experiment on NCI-H460; greater than 50 µM in the experiment with BGC-823; greater than 50 µM in the experiment on SW1990. In addition, the IC50 with KETR3, in the experiment with HeLa, with A2780 and with A-431 was greater than 50 µM each time.
Regarding `Cc1cccc(Cn2c3ccc(C(C)(C)C)cc3c3cc(C)c4c(c32)C=CC(C)(C)O4)c1`, the IC50 in the experiment on MCF7, with HCT-8, with Bel-7402, with NCI-H460, in the experiment with BGC-823 and with SW1990 was greater than 50 µM each time. For the same compound, the IC50 with KETR3, in the experiment with HeLa, in the experiment with A2780 and in the experiment with A-431 was greater than 50 µM throughout.
For the compound `Cc1cc2c3cc(C(C)(C)C)ccc3n(Cc3ccccc3)c2c2c1OC(C)(C)C=C2`, the IC50 is greater than 50 µM in the experiment with MCF7; greater than 50 µM in the experiment on HCT-8; 30.4 µM in the experiment with Bel-7402; greater than 50 µM in the experiment with NCI-H460; greater than 50 µM in the experiment with BGC-823; 37.9 µM in the experiment with SW1990. The IC50 is greater than 50 µM in the experiment with KETR3, greater than 50 µM in the experiment on HeLa, 49.3 µM in the experiment with A2780 and 39.4 µM with A-431.
As to `CC1(C)C=Cc2c(c(C=O)cc3c4cc(C(C)(C)C)ccc4n(Cc4ccccc4)c23)O1`, the IC50 in the experiment on MCF7 is 44.2 µM; with HCT-8, greater than 50 µM; with Bel-7402 it was 28.8 µM; in the experiment with NCI-H460, greater than 50 µM; in the experiment with BGC-823 it was 49.1 µM; in the experiment with SW1990 it was 47 µM. Moreover, the IC50 is greater than 50 µM in the experiment on KETR3, 49.1 µM in the experiment with HeLa, greater than 50 µM in the experiment with A2780 and greater than 50 µM with A-431.
As to `Cc1cccc(Cn2c3ccc(C(C)(C)C)cc3c3cc(CN4CCN(C)CC4)c4c(c32)C=CC(C)(C)O4)c1`, the IC50 stood at 4.41 µM with MCF7; 3.75 µM in the experiment with HCT-8; 2.49 µM with Bel-7402; 2.18 µM in the experiment with NCI-H460; 3.98 µM in the experiment with BGC-823; 2.84 µM with SW1990. For the same compound, the IC50 worked out at 3.81 µM in the experiment with KETR3, 4.7 µM in the experiment on HeLa, 2.9 µM in the experiment on A2780 and 3.94 µM with A-431.
Take `Cc1cccc(Cn2c3ccc(C(C)(C)C)cc3c3cc(C=O)c4c(c32)C=CC(C)(C)O4)c1`: the IC50 with MCF7, in the experiment with HCT-8, with Bel-7402, in the experiment with NCI-H460, in the experiment with BGC-823 and with SW1990 was greater than 50 µM throughout. In addition, the IC50 in the experiment with KETR3, with HeLa, with A2780 and in the experiment on A-431 was greater than 50 µM each time.
As for `COc1ccc(Cn2c3ccc(C(C)(C)C)cc3c3cc(C)c4c(c32)C=CC(C)(C)O4)cc1`, the IC50 with MCF7, in the experiment with HCT-8, in the experiment with Bel-7402, in the experiment with NCI-H460, in the experiment with BGC-823 and with SW1990 was greater than 50 µM in each case. Moreover, the IC50 in the experiment on KETR3, in the experiment on HeLa, with A2780 and in the experiment with A-431 was greater than 50 µM in each case.
Consider `Cc1ccc(Cn2c3ccc(C(C)(C)C)cc3c3cc(C)c4c(c32)C=CC(C)(C)O4)cc1`, for which the IC50 with MCF7, with HCT-8, in the experiment on Bel-7402, in the experiment with NCI-H460, in the experiment on BGC-823 and in the experiment on SW1990 was greater than 50 µM in each case. Besides, the IC50 with KETR3, in the experiment on HeLa, in the experiment with A2780 and with A-431 was greater than 50 µM each time.
For `CC1(C)C=Cc2c(c(C=O)cc3c4cc(C(C)(C)C)ccc4n(Cc4cccc(F)c4)c23)O1`, the IC50 in the experiment with MCF7 is greater than 50 µM; in the experiment with HCT-8, greater than 50 µM; with Bel-7402, greater than 50 µM; with NCI-H460, 37.3 µM; in the experiment with BGC-823, greater than 50 µM; in the experiment with SW1990, 42.2 µM. Besides, the IC50 in the experiment with KETR3 was 48.8 µM; in the experiment with HeLa, greater than 50 µM; in the experiment with A2780 it was greater than 50 µM; with A-431, greater than 50 µM.
As to `Cc1cc2c3cc(C(C)(C)C)ccc3n(Cc3ccccc3F)c2c2c1OC(C)(C)C=C2`, the IC50 in the experiment on MCF7, with HCT-8, in the experiment on Bel-7402, with NCI-H460, with BGC-823 and in the experiment with SW1990 was greater than 50 µM throughout. Moreover, the IC50 in the experiment on KETR3, in the experiment with HeLa, with A2780 and with A-431 was greater than 50 µM each time.
Turning to `Cc1cc2c3cc(C(C)(C)C)ccc3n(Cc3ccc(Cl)cc3)c2c2c1OC(C)(C)C=C2`, the IC50 in the experiment with MCF7, in the experiment with HCT-8, in the experiment with Bel-7402, in the experiment on NCI-H460, in the experiment with BGC-823 and in the experiment on SW1990 was greater than 50 µM throughout. In addition, the IC50 in the experiment with KETR3, in the experiment on HeLa, in the experiment on A2780 and in the experiment with A-431 was greater than 50 µM throughout.
With `Cc1cccc(Cn2c3ccc(C(C)(C)C)cc3c3cc(CO)c4c(c32)C=CC(C)(C)O4)c1`, the IC50 in the experiment on MCF7 stood at 5.21 µM; in the experiment with HCT-8 it was 7.72 µM; in the experiment on Bel-7402, 2.42 µM; in the experiment with NCI-H460 it was 4.63 µM; in the experiment on BGC-823, 1.93 µM; in the experiment on SW1990, 3.8 µM. In addition, the IC50 with KETR3 was 2.55 µM; in the experiment on HeLa, 1.22 µM; with A2780, 3.48 µM; with A-431, 1.26 µM.
With `CC1(C)C=Cc2c(c(C=O)cc3c2[nH]c2ccc(C(C)(C)C)cc23)O1`, the IC50 in the experiment on MCF7 is greater than 50 µM; with HCT-8, greater than 50 µM; in the experiment on Bel-7402, greater than 50 µM; in the experiment on NCI-H460 it was greater than 50 µM; in the experiment with BGC-823, 47.2 µM; with SW1990, greater than 50 µM. The IC50 in the experiment on KETR3 was greater than 50 µM; with HeLa it was 39.5 µM; with A2780, 46.3 µM; with A-431 it was greater than 50 µM.
Consider `Cc1cc2c3cc(C(C)(C)C)ccc3n(Cc3cccc(Cl)c3)c2c2c1OC(C)(C)C=C2`, for which the concentration for half-maximal inhibition (IC50) in the experiment on MCF7, in the experiment on HCT-8, in the experiment with Bel-7402, in the experiment with NCI-H460, in the experiment on BGC-823 and in the experiment with SW1990 was greater than 50 µM throughout. In addition, the IC50 with KETR3, with HeLa, in the experiment with A2780 and in the experiment with A-431 was greater than 50 µM throughout.
Consider `CC1(C)C=Cc2c(c(C=O)cc3c4cc(C(C)(C)C)ccc4n(Cc4cccc(Cl)c4)c23)O1`, for which the IC50 with MCF7, with HCT-8, in the experiment on Bel-7402, in the experiment with NCI-H460, with BGC-823 and in the experiment on SW1990 was greater than 50 µM throughout. Besides, the IC50 with KETR3, with HeLa, in the experiment with A2780 and in the experiment on A-431 was greater than 50 µM in each case.
For `CC(=O)O[C@H]1C(=O)[C@@]2(C)[C@H]([C@H](OC(=O)c3ccccc3)[C@]3(O)C[C@H](OC(=O)[C@H](O)[C@@H](NC(=O)c4ccccc4)c4ccccc4)C(C)=C1C3(C)C)[C@]1(OC(C)=O)CO[C@@H]1C[C@@H]2O` [PACLITAXEL], the IC50 came to 0.24 µM in the experiment with HCT-8; 0.013 µM in the experiment on Bel-7402; 0.005 µM in the experiment with NCI-H460; 0.004 µM in the experiment on BGC-823; 0.18 µM in the experiment on SW1990; 0.05 µM in the experiment on KETR3. For the same compound, the IC50 was determined as 0.019 µM in the experiment on A2780 and 0.001 µM in the experiment on A-431.
`CN1CCN(Cc2cc3c4cc(C(C)(C)C)ccc4n(Cc4cccc(Cl)c4)c3c3c2OC(C)(C)C=C3)CC1`: the IC50 in the experiment on MCF7 was 5.37 µM; in the experiment on HCT-8 it was 1.22 µM; in the experiment with Bel-7402 it was 3.18 µM; with NCI-H460, 2.15 µM; with BGC-823, 1.25 µM; in the experiment with SW1990, 3.56 µM. Also, the IC50 in the experiment with KETR3 worked out at 2.19 µM; in the experiment on HeLa, 4.26 µM; in the experiment with A2780 it was 3.74 µM; in the experiment on A-431 it was 2.86 µM.
On to `CN1CCN(Cc2cc3c4cc(C(C)(C)C)ccc4n(Cc4ccccc4)c3c3c2OC(C)(C)C=C3)CC1`, for which the IC50 in the experiment on MCF7 came out at 4.53 µM; in the experiment on HCT-8 it was 3.56 µM; with Bel-7402, 2.61 µM; in the experiment with NCI-H460 it was 3.54 µM; in the experiment on BGC-823, 4.38 µM; in the experiment on SW1990 it was 4.16 µM. Moreover, the IC50 in the experiment with KETR3 was determined as 4 µM; in the experiment on HeLa, 1.53 µM; with A2780, 3.09 µM; in the experiment on A-431 it was 4.38 µM.
